Results published in patent US11382956B2, “Amylin analogues” (Zealand Pharma A/S, priority 2016, dated 2022).
Numbered stars: 1 amine (or outer) side, 2 acyl side, 3 side chain; on linkers, the order of the positions; unused ones are H or OH. Bridge positions count the residues as written; N and C are the ends. Square brackets hold non-standard residues; d marks the D form. Peptide text beside a SMILES is read from it. * marks the point of attachment. C20 diacid = O=C(O)CCCCCCCCCCCCCCCCCCC(=O)*; γGlu = O=C(O)[C@H](CCC(=O)[*:2])N[*:1]; Hyp = O=C(O)[C@@H]1C[C@@H](O)CN1; NMeI = CC[C@H](C)[C@H](NC)C(=O)O; Aad = N[C@@H](CCCC(=O)O)C(=O)O; Orn = NCCC[C@H](N)C(=O)O; Sar = CNCC(=O)O

Columns and labels:
[1] = molecular target: T1, recombinant human calcitonin receptor (hCT-R) (Homo sapiens, UniProt P30988); experiment: hCT-R cAMP assay (AlphaScreen) in 1321N1 cells; assay type: cell-based; details: cAMP formation, 45 min stimulation
T1 construct: host or cells: human astrocytoma cell line 1321N1
T1 sequence (P30988 25-474): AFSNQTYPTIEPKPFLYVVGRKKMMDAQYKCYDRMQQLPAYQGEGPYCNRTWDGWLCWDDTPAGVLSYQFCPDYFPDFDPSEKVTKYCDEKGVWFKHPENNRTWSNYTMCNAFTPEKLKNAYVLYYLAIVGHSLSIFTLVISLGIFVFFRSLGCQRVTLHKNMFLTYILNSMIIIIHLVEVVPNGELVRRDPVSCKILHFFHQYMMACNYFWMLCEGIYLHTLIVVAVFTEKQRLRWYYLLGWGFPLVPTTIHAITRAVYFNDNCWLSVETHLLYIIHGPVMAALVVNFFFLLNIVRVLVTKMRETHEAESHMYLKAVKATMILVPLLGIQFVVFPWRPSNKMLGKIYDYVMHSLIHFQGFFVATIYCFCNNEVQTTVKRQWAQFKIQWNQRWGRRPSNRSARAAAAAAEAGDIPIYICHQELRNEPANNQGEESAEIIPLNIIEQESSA
Method in brief: (§1)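 1321N1 astrocytoma cells expressing recombinant human calcitonin receptor alone or with RAMP3 (AMY3) stimulated 45 min at room temperature with peptide in IBMX-containing buffer. cAMP quantified by AlphaScreen after 1 h bead incubation; EC50 fitted from at least 7 concentrations.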

[2] = molecular target: T2, recombinant human amylin 3 receptor (hAMYR3) (Homo sapiens, UniProt O60896+P30988); experiment: hAMYR3 cAMP assay (AlphaScreen) in 1321N1 cells; assay type: cell-based; details: cAMP formation, 45 min stimulation
T2 construct: host or cells: human astrocytoma cell line 1321N1
T2 sequence (P30988 25-474): T1 sequence (P30988 25-474)
T2 sequence (O60896 24-148 partner): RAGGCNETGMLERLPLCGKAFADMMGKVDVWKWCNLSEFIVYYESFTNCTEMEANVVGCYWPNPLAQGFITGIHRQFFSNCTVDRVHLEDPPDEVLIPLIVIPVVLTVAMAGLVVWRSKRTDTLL
Method in brief: as §1

[3] = Assessment of physical stability: fibril formation by Thioflavin T fluorescence; assay type: physicochemical; set-up: key: FND = fibrillation not detected; FD = fibrillation detected; details: 1 mg/mL peptide
Procedure: Solutions containing (i) 1 mg/mL of test peptide, 40 μM ThT and 50 mM phosphate (Ph) buffer (pH 7.0), (ii) 1 mg/mL of test peptide, 40 μM ThT and 50 mM histidine (His) buffer (pH 7.0), and (iii) 1 mg/mL of test peptide, 40 μM ThT and 50 mM acetate (Ac) buffer (pH 4.0), were loaded in a 96-well black fluorescence plate (clear bottom) in triplicate. Data were collected at fixed intervals of 10 min, each preceded by 300 s of automixing (agitation), over a period of 96 hours at 40° C. Physical stability is determined by measuring the fluorescence intensity over time. A significant increase in intensity is rated as fibrillation detected (FD).

[4] = Assessment of chemical stability in 40 mM buffers at 40° C. (RP-HPLC); assay type: physicochemical; details: 1 mg/mL
Procedure: Samples of each test peptide were dissolved in acetate buffer pH 4 and phosphate buffer pH 6 and 7 (all buffer 40 mM). The final peptide concentration was 1 mg/mL. Samples were placed in glass vials and incubated at 40° C. The samples were analyzed by RP-HPLC on a C8 column with gradient elution using a trifluoroacetic acid/acetonitrile/water eluent system. The area-percentage (area-%) of the main peak was determined by UV spectroscopy at 220 nm at each sampling time point.
The % degradation was calculated by subtracting the […].
The results of the chemical stability assessment after 3 days of incubation time are summarized as % degradation in Table 1 (below).
The results of the chemical stability assessment after 14 days of incubation time are summarized as % degradation in Table 2 (below).

| EC50 [1] | EC50 [2] | Fibrillation (in buffer) pH4 acetate ([3]; 50 mM acetate buffer pH 4.0, 96 hours at 40° C.) | Fibrillation (in buffer) pH7 histidine ([3]; 50 mM histidine buffer pH 7.0, 96 hours at 40° C.) | Fibrillation (in buffer) pH7 phosphate ([3]; 50 mM phosphate buffer pH 7.0, 96 hours at 40° C.) | % degradation after 14 days at 40° C. pH4 acetate ([4]; acetate buffer pH 4, 14 days) | % degradation after 14 days at 40° C. pH6 phosphate ([4]; phosphate buffer pH 6, 14 days) | SMILES |
| --- | --- | --- | --- | --- | --- | --- | --- |
| 0.02 nM | 0.009 nM | FD | FND | FND | – | – | CC[C@H](C)[C@@H](C(=O)N[C@@H](CC(C)C)C(=O)N[C@@H](CO)C(=O)N[C@@H](CO)C(=O)N[C@H](C(=O)N[C@@H](CCC(=O)O)C(=O)N[C@H](C(=O)NCC(=O)N[C@@H](CO)C(=O)N[C@@H](CC(N)=O)C(=O)N[C@H](C(=O)N1C[C@H](O)C[C@H]1C(N)=O)[C@@H](C)O)[C@@H](C)O)[C@@H](C)O)N(C)C(=O)[C@H](C)NC(=O)CN(C)C(=O)[C@H](Cc1ccccc1)NC(=O)[C@H](CO)NC(=O)[C@H](CO)NC(=O)[C@H](CCCNC(=N)N)NC(=O)[C@H](CCC(N)=O)NC(=O)[C@H](CC(C)C)NC(=O)[C@H](Cc1ccccc1)NC(=O)[C@H](CC(N)=O)NC(=O)[C@H](C)NC(=O)[C@H](CC(C)C)NC(=O)[C@H](CCCNC(=N)N)NC(=O)[C@H](CCC(N)=O)NC(=O)[C@@H](NC(=O)[C@H](C)NC(=O)[C@@H]1CCCCNC(=O)C[C@H](NC(=O)[C@H](CCCCN)NC(=O)CC[C@H](NC(=O)CCCCCCCCCCCCCCCCCCC(=O)O)C(=O)O)C(=O)NCC(=O)N[C@@H]([C@@H](C)O)C(=O)N[C@@H](C)C(=O)N[C@@H]([C@@H](C)O)C(=O)N1)[C@@H](C)O [Compound 44, [19CD]-isoGlu-KD()GTATK()ATQRLANFLQRSSF-Gly(Me)-A-Ile(Me)-LSSTETGSNT-Hyp-NH2] ({C20 diacid-γGlu}-KDGTATKATQRLANFLQRSSF[Sar]A[NMeI]LSSTETGSNT[Hyp]-NH2; lactam 2-7) |
| 0.019 nM | 0.003 nM | – | – | – | <1% | 4.6% | CC[C@H](C)[C@@H](C(=O)N[C@@H](CC(C)C)C(=O)N[C@@H](CO)C(=O)N[C@@H](CO)C(=O)N[C@H](C(=O)N[C@@H](CCC(=O)O)C(=O)N[C@H](C(=O)NCC(=O)N[C@@H](CO)C(=O)N[C@@H](CC(N)=O)C(=O)N[C@H](C(=O)N1C[C@H](O)C[C@H]1C(N)=O)[C@@H](C)O)C(C)C)[C@@H](C)O)N(C)C(=O)[C@H](C)NC(=O)CN(C)C(=O)[C@H](Cc1ccccc1)NC(=O)[C@H](CO)NC(=O)[C@H](CO)NC(=O)[C@H](CCCNC(=N)N)NC(=O)[C@H](CCC(N)=O)NC(=O)[C@H](CC(C)C)NC(=O)[C@H](Cc1ccccc1)NC(=O)[C@H](Cc1c[nH]cn1)NC(=O)[C@H](C)NC(=O)[C@H](CC(C)C)NC(=O)[C@H](CCCNC(=N)N)NC(=O)[C@H](CCC(=O)O)NC(=O)[C@@H](NC(=O)[C@H](C)NC(=O)[C@@H]1CSSC[C@H](NC(=O)[C@H](CCCNC(=N)N)NC(=O)CC[C@H](NC(=O)CCCCCCCCCCCCCCCCCCC(=O)O)C(=O)O)C(=O)NCC(=O)N[C@@H]([C@@H](C)O)C(=O)N[C@@H](C)C(=O)N[C@@H]([C@@H](C)O)C(=O)N1)[C@@H](C)O [Ref. 2, [19CD]-isoGlu-RC()GTATC()ATERLAHFLQRSSF-Sar-A-Ile(Me)-LSSTEVGSNT-Hyp-NH2, reference compound] ({C20 diacid-γGlu}-RCGTATCATERLAHFLQRSSF[Sar]A[NMeI]LSSTEVGSNT[Hyp]-NH2; disulfide 2-7) |
| 18.2 nM | 13.2 nM | – | – | – | – | – | CC[C@H](C)[C@@H](C(=O)N[C@@H](CC(C)C)C(=O)N[C@@H](CO)C(=O)N[C@@H](CO)C(=O)N[C@H](C(=O)N[C@@H](CCC(=O)O)C(=O)N[C@H](C(=O)NCC(=O)N[C@@H](CO)C(=O)N[C@@H](CC(N)=O)C(=O)N[C@H](C(=O)N1C[C@H](O)C[C@H]1C(N)=O)[C@@H](C)O)C(C)C)[C@@H](C)O)N(C)C(=O)[C@H](C)NC(=O)CN(C)C(=O)[C@H](Cc1ccccc1)NC(=O)[C@H](CO)NC(=O)[C@H](CO)NC(=O)[C@H](CCCNC(=N)N)NC(=O)[C@H](CCC(N)=O)NC(=O)[C@H](CC(C)C)NC(=O)[C@H](Cc1ccccc1)NC(=O)[C@H](CCCC(=O)O)NC(=O)[C@H](C)NC(=O)[C@H](CC(C)C)NC(=O)[C@H](CCCNC(=N)N)NC(=O)[C@H](CCC(=O)O)NC(=O)[C@@H](NC(=O)[C@H](C)NC(=O)[C@H](CCCN)NC(=O)[C@@H](NC(=O)[C@H](C)NC(=O)[C@@H](NC(=O)CNC(=O)[C@H](CC(=O)O)NC(=O)[C@H](CCCNC(=N)N)NC(=O)CC[C@H](NC(=O)CCCCCCCCCCCCCCCCCCC(=O)O)C(=O)O)[C@@H](C)O)[C@@H](C)O)[C@@H](C)O [Ref. 3, [19CD]-isoGlu-RDGTAT-Orn-ATERLA-Aad-FLQRSSF-Sar-A-Ile(Me)-LSSTEVGSNT-Hyp-NH2, reference compound] ({C20 diacid-γGlu}-RDGTAT[Orn]ATERLA[Aad]FLQRSSF[Sar]A[NMeI]LSSTEVGSNT[Hyp]-NH2) |
